According to patent US6355799B1, “Substituted benzene compounds, process for their preparation, and herbicidal and defoliant compositions containing them” (ISK Americas Incorporated, priority 1997, dated 2002):

How the values were obtained:
Format in all cases: in vivo
[1] = system: redroot pigweed (Amaranthus retroflexus, AMARE); assay: Pre-emerge test, greenhouse herbicide activity screening; conditions: pre-emerge, rated 14 days after application, 0 = no damage, 100 = complete death
In short: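 Rating: 0–100 visual injury, 14 DAA. Application: acetone, 187 l/ha, 15–1000 g ai/ha, flat-fan track sprayer with nozzle 40–45 cm above soil or canopy. Post-emerge runs used 0.25% v/v surfactant on 2–3 leaf plants.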

[2] = system: field corn (Zea mays L., var. Dekalb 535, CORN); assay: Post-emerge test, crop safety; conditions: phytotoxicity rating 0-100 (0 no damage, 100 complete death), 14 days after application
In short: (§1)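 Sandy loam pots; pre-emerge: sown 1 d pre-spray, surface-watered after, then bottom-watered. Post-emerge: sown 8–21 d before, 2–3 leaf stage, + 0.25% v/v NIS, bottom-watered. Acetone, 187 l/ha track spray, 15–1000 g ai/ha. 0–100 injury score, day 14.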

[3] = system: upland rice (Oryza sp., var. Tebonnet, RICE); assay: Post-emerge test, crop safety; conditions: phytotoxicity rating 0-100 (0 no damage, 100 complete death), 14 days after application
In short: as §1

[4] = system: sicklepod (Cassia obtusifolia, CASOB); assay: Pre-emerge test, greenhouse herbicide activity screening; conditions: pre-emerge, rated 14 days after application, 0 = no damage, 100 = complete death
In short: as §1

[5] = system: velvetleaf (Abutilon theophrasti, ABUTH); assay: as above; conditions: pre-emerge, rated 14 days after application, 0 = no damage, 100 = complete death
In short: as §1

[6] = system: ivyleaf morningglory (Ipomoea hederacea, IPOHE); assay: as above; conditions: pre-emerge, rated 14 days after application, 0 = no damage, 100 = complete death
In short: as §1

[7] = system: large crabgrass (Digitaria sanguinalis, DIGSA); assay: as above; conditions: pre-emerge, rated 14 days after application, 0 = no damage, 100 = complete death
In short: as §1

[8] = system: barnyardgrass (Echinochloa crus-galli, ECHCG); assay: as above; conditions: pre-emerge, rated 14 days after application, 0 = no damage, 100 = complete death
In short: as §1

[9] = system: johnsongrass (Sorghum halepense, SORHA); assay: as above; conditions: pre-emerge, rated 14 days after application, 0 = no damage, 100 = complete death
In short: as §1

[10] = system: lambsquarters (Chenopodium album, CHEAL); assay: as above; conditions: pre-emerge, rated 14 days after application, 0 = no damage, 100 = complete death
In short: as §1

[11] = system: green foxtail (Setaria viridis, SETVI); assay: as above; conditions: pre-emerge, rated 14 days after application, 0 = no damage, 100 = complete death
In short: as §1

[12] = system: field corn (Zea mays L., var. Dekalb 535, CORN); assay: Pre-emerge test, crop safety; conditions: pre-emerge, rated 14 days after application, 0 = no damage, 100 = complete death
In short: (§2)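 Herbicidal damage is scored 0 (none) to 100 (complete plant death) two weeks after a simulated field spray. Rates span 15–1000 g ai/ha, delivered in acetone at 187 l/ha. For post-emergence treatments, plants have 2–3 leaves and the spray carries 0.25% v/v non-ionic surfactant.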

[13] = system: upland rice (Oryza sp., var. Tebonnet, RICE); assay: Pre-emerge test, crop safety; conditions: pre-emerge, rated 14 days after application, 0 = no damage, 100 = complete death
In short: as §2

[14] = system: sicklepod (Cassia obtusifolia, CASOB); assay: Post-emerge test, greenhouse herbicide activity screening; conditions: phytotoxicity rating 0-100 (0 no damage, 100 complete death), 14 days after application
In short: (§3)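 Applied at 15–1000 g ai/ha from acetone in 187 l/ha spray volume. Post-emergence applications included 0.25% v/v non-ionic surfactant and reached plants sown 8–21 days before. Pre-emergence applications were incorporated by surface watering. Efficacy or crop damage was rated on a 0–100 scale after 14 days.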

[15] = system: velvetleaf (Abutilon theophrasti, ABUTH); assay: as above; conditions: phytotoxicity rating 0-100 (0 no damage, 100 complete death), 14 days after application
In short: as §3

[16] = system: common ragweed (Ambrosia artemisizfolia L., AMBEL); assay: as above; conditions: phytotoxicity rating 0-100 (0 no damage, 100 complete death), 14 days after application
In short: as §3

[17] = system: ivyleaf morningglory (Ipomoea hederacea, IPOHE); assay: as above; conditions: phytotoxicity rating 0-100 (0 no damage, 100 complete death), 14 days after application
In short: as §3

[18] = system: large crabgrass (Digitaria sanguinalis, DIGSA); assay: as above; conditions: phytotoxicity rating 0-100 (0 no damage, 100 complete death), 14 days after application
In short: as §3

[19] = system: redroot pigweed (Amaranthus retroflexus, AMARE); assay: as above; conditions: phytotoxicity rating 0-100 (0 no damage, 100 complete death), 14 days after application
In short: as §3

[20] = system: barnyardgrass (Echinochloa crus-galli, ECHCG); assay: as above; conditions: phytotoxicity rating 0-100 (0 no damage, 100 complete death), 14 days after application
In short: as §3

[21] = system: johnsongrass (Sorghum halepense, SORHA); assay: as above; conditions: phytotoxicity rating 0-100 (0 no damage, 100 complete death), 14 days after application
In short: as §3

[22] = system: lambsquarters (Chenopodium album, CHEAL); assay: as above; conditions: phytotoxicity rating 0-100 (0 no damage, 100 complete death), 14 days after application
In short: as §3

[23] = system: green foxtail (Setaria viridis, SETVI); assay: as above; conditions: phytotoxicity rating 0-100 (0 no damage, 100 complete death), 14 days after application
In short: as §3

## CCn1c(C(F)(F)F)cc(=O)n(-c2c(F)cc(Cl)c(OC)c2N)c1=O [Compound 1-15]
[1]; 63 g ai/ha
  Pre-emerge Herbicidal Activity AMARE (phytotoxicity rating, scale 0-100): 0
[1]; 250 g ai/ha
  Pre-emerge Herbicidal Activity AMARE (phytotoxicity rating, scale 0-100): 20
[2]; 63 g ai/ha
  Post-emerge Herbicidal Activity CORN (crop damage): 0
[2]; 250 g ai/ha
  Post-emerge Herbicidal Activity CORN (crop damage): 0
[3]; 63 g ai/ha
  Post-emerge Herbicidal Activity RICE (crop damage): 0
[3]; 250 g ai/ha
  Post-emerge Herbicidal Activity RICE (crop damage): 0
[4]; 63 g ai/ha
  Pre-emerge Herbicidal Activity CASOB (phytotoxicity rating, scale 0-100): 0
[4]; 250 g ai/ha
  Pre-emerge Herbicidal Activity CASOB (phytotoxicity rating, scale 0-100): 0
[5]; 63 g ai/ha
  Pre-emerge Herbicidal Activity ABUTH (phytotoxicity rating, scale 0-100): 20
[5]; 250 g ai/ha
  Pre-emerge Herbicidal Activity ABUTH (phytotoxicity rating, scale 0-100): 90
[6]; 63 g ai/ha
  Pre-emerge Herbicidal Activity IPOHE (phytotoxicity rating, scale 0-100): 0
[6]; 250 g ai/ha
  Pre-emerge Herbicidal Activity IPOHE (phytotoxicity rating, scale 0-100): 0
[7]; 63 g ai/ha
  Pre-emerge Herbicidal Activity DIGSA (phytotoxicity rating, scale 0-100): 0
[7]; 250 g ai/ha
  Pre-emerge Herbicidal Activity DIGSA (phytotoxicity rating, scale 0-100): 90
[8]; 63 g ai/ha
  Pre-emerge Herbicidal Activity ECHCG (phytotoxicity rating, scale 0-100): 0
[8]; 250 g ai/ha
  Pre-emerge Herbicidal Activity ECHCG (phytotoxicity rating, scale 0-100): 0
[9]; 63 g ai/ha
  Pre-emerge Herbicidal Activity SORHA (phytotoxicity rating, scale 0-100): 0
[9]; 250 g ai/ha
  Pre-emerge Herbicidal Activity SORHA (phytotoxicity rating, scale 0-100): 20
[10]; 63 g ai/ha
  Pre-emerge Herbicidal Activity CHEAL (phytotoxicity rating, scale 0-100): 40
[10]; 250 g ai/ha
  Pre-emerge Herbicidal Activity CHEAL (phytotoxicity rating, scale 0-100): 50
[11]; 63 g ai/ha
  Pre-emerge Herbicidal Activity SETVI (phytotoxicity rating, scale 0-100): 70
[11]; 250 g ai/ha
  Pre-emerge Herbicidal Activity SETVI (phytotoxicity rating, scale 0-100): 80
[12]; 63 g ai/ha
  Pre-emerge crop damage CORN (phytotoxicity rating, scale 0-100): 0
[12]; 250 g ai/ha
  Pre-emerge crop damage CORN (phytotoxicity rating, scale 0-100): 0
[13]; 63 g ai/ha
  Pre-emerge crop damage RICE (phytotoxicity rating, scale 0-100): 10
[13]; 250 g ai/ha
  Pre-emerge crop damage RICE (phytotoxicity rating, scale 0-100): 30
[14]; 63 g ai/ha
  Post-emerge Herbicidal Activity CASOB: 0
[14]; 250 g ai/ha
  Post-emerge Herbicidal Activity CASOB: 0
[15]; 63 g ai/ha
  Post-emerge Herbicidal Activity ABUTH: 30
[15]; 250 g ai/ha
  Post-emerge Herbicidal Activity ABUTH: 50
[16]; 63 g ai/ha
  Post-emerge Herbicidal Activity AMBEL: 0
[16]; 250 g ai/ha
  Post-emerge Herbicidal Activity AMBEL: 0
[17]; 63 g ai/ha
  Post-emerge Herbicidal Activity IPOHE: 0
[17]; 250 g ai/ha
  Post-emerge Herbicidal Activity IPOHE: 40
[18]; 63 g ai/ha
  Post-emerge Herbicidal Activity DIGSA: 0
[18]; 250 g ai/ha
  Post-emerge Herbicidal Activity DIGSA: 0
[19]; 63 g ai/ha
  Post-emerge Herbicidal Activity AMARE: 0
[19]; 250 g ai/ha
  Post-emerge Herbicidal Activity AMARE: 30
[20]; 63 g ai/ha
  Post-emerge Herbicidal Activity ECHCG: 0
[20]; 250 g ai/ha
  Post-emerge Herbicidal Activity ECHCG: 0
[21]; 63 g ai/ha
  Post-emerge Herbicidal Activity SORHA: 0
[21]; 250 g ai/ha
  Post-emerge Herbicidal Activity SORHA: 0
[22]; 63 g ai/ha
  Post-emerge Herbicidal Activity CHEAL: 0
[22]; 250 g ai/ha
  Post-emerge Herbicidal Activity CHEAL: 20
[23]; 63 g ai/ha
  Post-emerge Herbicidal Activity SETVI: 0
[23]; 250 g ai/ha
  Post-emerge Herbicidal Activity SETVI: 0
